According to paper PMC12564946, “A Stable Delivery System for Meretrix meretrix Derived Immunomodulatory Peptide (QLNWD): Fabrication and Characterization of Glycosylated Protein Nanoparticle” (Marine Drugs, 2025):
Ends that are not written are not given here.

Assay: In vitro release of QLNWD, dialysis bag method in enzyme-free SGF/SIF
Type: in vitro ADME
Conditions: 37 °C, 120 rpm
Method: The release profile of QLNWD in NPs was evaluated according to a published dialysis method. A 2 mL aliquot of QLNWD (1 mg/mL) nanoparticle solution was introduced into a presoaked dialysis bag (molecular weight cutoff of 3500 Da). The bag was immersed in 20 mL of simulated gastric fluid (SGF, enzyme-free), which had been preheated at 37 °C for 30 min and adjusted to pH 2. The entire system was incubated at 37 °C under continuous agitation at 120 rpm. After 2 h, the pH was adjusted to 7.0, and 20 mL of simulated intestinal fluid (SIF, enzyme-free), also preheated at 37 °C for 30 min and adjusted to pH 7.0, was added to the system. At predetermined intervals, 1 mL of the release medium was sampled and immediately replenished with an equal volume of fresh SGF/SIF. Samples without QLNWD served as the blank control, and the cumulative release was determined as follows:(2) Cumulative release (%)=(V0Cn+Ve∑1n−1Cn−1)/total QLNWD content×100 where V0 refers to the total volume of simulated gastric or intestinal fluid, Cn refers to the concentration of QLNWD at the nth time, and Ve refers to the volume of each sample.

Cumulative release of QLNWD (12 h: 2 h enzyme-free SGF pH 2, then enzyme-free SIF pH 7.0, dialysis bag 3500 Da): 79.1% | Cumulative release of QLNWD (initial 2 h in enzyme-free SGF pH 2, dialysis bag 3500 Da, QLNWD 1 mg/mL): 38.1%
Substance: QLNWD [QLNWD, Gln-Leu-Asn-Trp-Asp]
